Assay results from patent US20060002946A1, “Targeted immunogens” (Aventis Pasteur, Inc., priority 2003, published 2006).
“Also recorded” adds a separate entry of the source.

What was measured:
[1] = tested on: Splenocytes from C57BL/6 mice; test: In vitro analysis of NP peptide presentation, IFN-γ ELISPOT (FIG. 12); assay type: cell-based, mouse; conditions: 10 ug/ml pulse 1 hour; for duration of ability of pulsed cells to stimulate T cells: incubation up to 120 hours (limit of the assay)
Description: FIG. 12. In vitro analysis of NP peptide presentation. Splenocytes from C57BL/6 mice were pulsed with 10 ug/ml of the indicated peptides for 1 hour at 37C., washed, and incubated for 0, 24, 72, or 120 hours. Cells were then tested by ELISPOT for their ability to induce IFN-γ secretion from NP-specific T cells.
FIG. 12 illustrates a similar analysis performed using the NP system.

RMA cells = test: Sensitization of RMA target cells for CTL lysis, chromium release assay; assay type: cell-based, mouse; conditions: 10 pg/ml peptide, 1 hour at 37° C., 4-hour chromium release, T cells of influenza-immunized C57BL/6 mice
Description: (§1) FIG. 1. In vitro sensitization of target cells for peptide-specific lysis by hPER1 conjugates.
To determine whether hPER1-CTL conjugates can form CTL target structures, ^51Cr-labeled RMA cells were pulsed with 10^−11 g/ml NP peptide ([…]) or hPER1-NP peptide ([…]), or were left untreated (no peptide) and incubated for 1 hour at 37° C. The cells were then washed and tested for CTL recognition in a standard 4-hour chromium release assay, using T cells obtained from the spleens of C57BL/6 mice immunized with influenza virus.

C57BL/6 mice [2] = test: i.v. injection of peptide-pulsed dendritic cells, CTL chromium release (FIG. 4); assay type: in vivo, mouse; conditions: 5×10^5 pulsed DCs i.v., one week post immunization, SIINFEKL-pulsed targets
Description: FIG. 4. CTL responses in C57BL/6 nice following intravenous (i.v.) injection of peptide-pulsed DCs. Mice were immunized i.v. with 5×10^5 bone marrow-derived DCs pulsed with the indicated peptides.
Consequently, we tested the ability of transcytosis peptides to generate CTL responses in the context of a DC-based vaccine. Murine bone marrow derived dendritic cells were matured in vitro, pulsed with either […] alone, conjugated with either Tat or hPER1 with or without linkers, and were injected intravenously in the tail vein of C57BL/6 mice. One week post immunization, the splenocytes from vaccinated animals were tested for CTL activity following in vitro restimulation.

A2/Kb mice = test: Immunization with gp100-154 peptides plus or minus helper CD4 peptide, CTL assay (FIGS. 6, 8, 13); assay type: in vivo, mouse; conditions: for CTL responses / cytotoxicity at three weeks and three months: s.c. immunization, FIG. 13
Source text: Results shown represent the mean value of four individual mice for each group.
FIG. 8. The presence of a helper CD4 hepatitis B peptide is essential for the generation of CTL responses against a CD8 peptide. A2/Kb mice were inoculated intranasally with hPER1-FVYVW-154 peptide at different doses from 50 nmoles to 1 nmoles with or without helper peptide.
FIG. 13. Induction of long-term immunity following hPER1-FVYVW-gp100-154 peptide immunization. CTL responses in A2/Kb mice following 3 weeks or 3 months subcutaneous immunization with gp100-154 epitope alone or in association with hPER1-FVYVW. […] Short-term (3 weeks) as well as long-term (3 months) T cell responses are observed in 4/4 or ¾ mice respectively following hPEr1-FVYVW-154 immunization.
(§2) In carrying out the experiments described in FIGS. 6 and 13, mice were immunized by the specified route with 50 nmol (if not specified otherwise) of peptide plus 50 nmol of a hepatitis B epitope in mice to serve as a helper CD4 peptide. Three weeks after the first injection a boost was carried out with the same regimen, and three weeks after that, spleens were harvested and homogenized to a single suspension. Whole splenocytes were placed into culture with 0.5 ug/ml of the epitope peptide and incubated at 37 degrees for five days. A CTL assay was conducted on day five of culture after Ficoll treatment to purify live cells. Controls that were used are matched Kb or A2 binding peptides.

mice = test: Summary of in vivo Immunogenicity Studies (Table IV); design: species or system mouse
[3] = tested on: HLA-A2/Kb transgenic mice; test: s.c. peptide immunization, gp100-154 CTL chromium release (FIG. 5); conditions: 50 ug s.c., boosts days 21 and 42, day 63
Description: CTL responses in HLA-A2/Kb transgenic mice following subcutaneous (s.c.) injection of peptide. Mice were immunized s.c. with 50 ug of the indicated peptides and boosted on days 21 and 42 following the first injection. Splenocytes from immunized animals were harvested on day 63 post immunization, re-stimulated with the native gp100-154 peptide for 5 days, and tested for CTL activity in a standard chromium release assay using target cells pulsed with gp100-154 peptide.
Furthermore, CTL responses were assessed in HLA-A2/K^b transgenic mice (Sherman strain) following s.c. immunization with gp100-154 peptide alone, conjugated to hPER1 or AntpHD with or without linker FVYVW. Mice were boosted on days 21 and 42 and splenocytes from vaccinated animals were harvested on day 63 and tested for CTL activity after 5 days of restimulation in vitro.

C57BL/6 mice [4] = test: Immunization with […] conjugates, CTL assay (FIGS. 7, 9, 10); assay type: in vivo, mouse; conditions: for cytotoxicity levels, adjuvant free immunization: s.c. without adjuvant; for CTL responses / cytotoxicity, Tat versus hPER1 conjugates: s.c., DEVWEL linker, FIG. 7
Source text: FIG. 7. In vivo induction of T cell responses using hPER1 or Tat peptides conjugated to […] epitope. Mice were immunized subcutaneously with […] peptide associated to either Tat or hPER1 with the DEVWEL linker sequence. Results shown in this figure represent the mean value of 4 individual mice for each group.
FIG. 9. […] C57BL/6 mice were immunized intradermally with different doses of hPER1-SGQL-[…] with or without helper peptide.
FIG. 10. In vivo induction of immunity following adjuvant free peptide immunization with hPER1 associated to […] in the presence of different linker sequences.
as §2

[5] = tested on: Splenocytes from C57BL/6 mice; test: In vitro analysis of OVA ([…]) peptide presentation, IFN-γ ELISPOT (FIG. 11); assay type: cell-based, mouse; conditions: 10 ug/ml pulse 1 hour; for stimulatory activity of pulsed cells after 30 hours: 30 hours incubation, IFN-γ ELISPOT
Description: FIG. 11. In vitro analysis of OVA ([…]) peptide presentation. Splenocytes from C57BL/6 mice were pulsed with 10 ug/ml of the indicated peptides for 1 hour at 37° C., washed, and incubated for 0, 4, 8, 24, or 30 hours. Cells pulsed with transduction peptides were pre-incubated with a bGAL peptide to block any cell surface binding. The cells were then tested by ELISPOT for their ability to induce IFN-γ secretion from […]-specific T cells. Spot counts greater than 300/well could not be counted. *=sample not tested.
To further study the effect of coupling CTL epitopes to the hPER1 transduction domain, the following in vitro assay was developed to assess the kinetics of antigen presentation following incubation of cells with peptide. In FIG. 11, splenocytes from C57BL/6 mice were incubated with different OVA-based peptides for 1 hour at 37° C. The cells were then washed to remove any residual free peptide, and incubated in culture medium at 37° C. for 0, 4, 8, 24 or 30 hours. The cells were then tested for their ability to stimulate IFN-γ production from […]-specific T cells by ELISPOT.

P815-A2/K^b cells = test: Sensitization of P815-A2/K^b target cells for CTL lysis, chromium release assay; assay type: cell-based, mouse
Description: as §1
Further, ^51Cr-labeled P815-A2/K^b cells were pulsed with 10^−6 g/ml 280-9V peptide ([…]) or hPER1-280-9V ([…]) or were left untreated (no peptide) and incubated for 1 hour at 37° C. The cells were then washed and tested for CTL recognition in a standard 4-hour chromium release assay, using T cells obtained from the spleens of HLA-A2/K^b transgenic mice immunized with 280-9V peptide in incomplete Freund's adjuvant. Where indicated, 5 μg/ml brefeldin A (BFA) was included in the assay, to block the surface expression of nascent class I MHC molecules. […] The level of CTL killing is reduced if the hPER1-280-9V-pulsed target cells are treated with brefeldin A, which blocks the intracellular transport of newly synthesized MHC molecules.

[6] = tested on: PBMCs from an HLA-A2-positive patient; test: In vitro induction of human CTL in PBMC culture, chromium release assay; assay type: cell-based; conditions: repeated in vitro stimulation, day 42, C1R-A2 target cells pulsed with 280-9V
Description: FIG. 2. In vitro induction of human T cell responses using a hPER1 conjugate peptide.
Peripheral blood mononuclear cells (PBMCs) from an HLA-A2-positive patient were cultured in the presence of IL-2 (50 U/ml), IL-7 (10 ng/ml), LPS (10 μg/ml), CD40-ligand expressing 3T3 cells, and peptide (10 μg/ml of 280-9V or hPER1-280-9V). On days 11, 22, and 32 the cells were restimulated by culturing in the presence of IL-2 (50 U/ml) and IL-7 (10 ng/ml) and autologous, CD40-ligand activated PBMCs pulsed with peptide (100 μg/ml of 280-9V or hPER1-280-9V) for 3 hours.

[7] = tested on: HLA-A2/K^b transgenic mice; test: s.c. immunization without adjuvant, CTL assay (FIG. 3B); assay type: in vivo, mouse; conditions: 100 μg s.c. plus T-helper peptide, no adjuvant, boosts days 14 and 28
Source text: Mice were similarly boosted on days 14 and 28. […] Average responses from each group are shown.

[8] = grades − to + + + +, key not given

ASNENMETM [reference compound]
stimulatory activity of pulsed cells after 24 hours of incubation ([1]; IFN-γ ELISPOT with NP-specific T cells): shows a loss in activity

GRRHHRRSKAKRSRASNENMETM [hPER1, no linker, flu NP366-374]
sensitization of RMA target cells for CTL-mediated lysis (RMA cells): can be sensitized for CTL-mediated lysis | duration of ability of pulsed cells to stimulate T cells [1]: retain their ability to stimulate T cells out to five days

GYGRKKRRQRRR-LEQLE-SIINFEKL
CTL responses after peptide-pulsed DC vaccine (C57BL/6 mice [2]): less immunogenic than TAT-SIINFEKL without linker

KTWGQYWQV [reference compound]
CTL responses / cytotoxicity at three weeks and three months (A2/Kb mice; listed as 154): did not induce cytotoxicity at either three weeks or three months; also recorded: does not generate significant CTL responses

RQIKIWFQNRRMKWKKFVYVWKTWGQYWQV [AntpHD, linker FVYVW, gp100-154]
Immunogenicity in mice (mice; [8]): + + + +

RQIKIWFQNRRMKWKKLKTWGQYWQV [AntpHD, linker L, gp100-154]
Immunogenicity in mice (mice; [8]): + + +

RQIKIWFQNRRMKWKKTWVGQYWQV
CTL responses against gp100-154 [3]: a weak response was observed

RRHHRRSKAKRSRDEVWELSIINFEKL [hPER1, linker DEVWEL, OVA]
cytotoxicity levels, adjuvant free immunization (C57BL/6 mice [4]; FIG. 10): comparable | CTL responses / cytotoxicity, Tat versus hPER1 conjugates (C57BL/6 mice [4]): gave the best CTL responses as compared to the positive control SIINFEKL in IFA | CTL responses / cytotoxicity, Tat versus hPER1 conjugates (C57BL/6 mice [4]; listed as hPER1-DEVWEL-SIINFEKL): induced a greater level of cytotoxicity as compared to Tat-DEVWEL-SIINFEKL at all E:T ratios tested | Immunogenicity in mice (mice; [8]): + + + +

RRHHRRSKAKRSRFVYVWKTWGQYWQV [hPER1, linker FVYVW, gp100-154] [listing 1 of 2 here]
Immunogenicity in mice (mice; mouse, in vivo): + + + +

RRHHRRSKAKRSRFVYVWKTWGQYWQV [hPER1, linker FVYVW, gp100-154] [listing 2 of 2 here]
CTL responses by different routes of immunization (A2/Kb mice; 50 nmol peptide plus 50 nmol helper peptide, intradermal, subcutaneous or intranasal): can be generated through different routes of immunization | cytotoxicity at 10 nmoles without helper peptide (A2/Kb mice; intranasal, 10 nmoles, absence of helper peptide): does not induce significant cytotoxicity | T cell cytotoxicity, without helper peptide (A2/Kb mice; intranasal, in the absence of helper peptide): induced much lower levels of cytotoxicity | T cell cytotoxicity, with helper peptide (A2/Kb mice; intranasal, in the presence of helper CD4 hepatitis B peptide): induced significant T cell cytotoxicity | CTL responses / cytotoxicity at three weeks and three months (A2/Kb mice): induced cytotoxicity that was detectable for at least three months | mice with long-term T cell responses (A2/Kb mice; s.c., 3 months, 4 mice/group): ¾ | mice with short-term T cell responses (A2/Kb mice; s.c., 3 weeks, 4 mice/group): 4/4

RRHHRRSKAKRSRFVYVWSIINFEKL [hPER1, linker FVYVW, OVA]
cytotoxicity levels, adjuvant free immunization (C57BL/6 mice [4]; FIG. 10): comparable | Immunogenicity in mice (mice; [8]): + + + +

RRHHRRSKAKRSRFVYVWSVYDFFVWL [hPER1, linker FVYVW, TRP-2]
Immunogenicity in mice (mice; [8]): + + +

RRHHRRSKAKRSRLSVYDFFVWL [hPER1, linker L, TRP2]
Immunogenicity in mice (mice; [8]): + +

RRHHRRSKAKRSRRGVQIASNENMETM [hPER1, linker RGVQI, flu NP366-374]
duration of ability of pulsed cells to stimulate T cells [1]: retain their ability to stimulate T cells out to five days

RRHHRRSKAKRSRSGQLSIINFEKL [hPER1, linker SGQL, OVA]
T cell responses without helper peptide at higher peptide dose (C57BL/6 mice [4]; intradermal, different doses, absence of helper peptide, FIG. 9): can induce T cell responses in mice | stimulatory activity of pulsed cells after 30 hours [5]: no reduction in activity

RRHHRRSKAKRSRSIINFEKL [hPER1, no linker, OVA]
CTL responses after peptide-pulsed DC vaccine (C57BL/6 mice [2]): generated a stronger response than either DCs pulsed with native SIINFEKL peptide or hPER1-LEQLE-SIINFEKL

RRHHRRSKAKRSRSVYDFFVWL [hPER1, no linker, TRP-2]
Immunogenicity in mice (mice; [8]): + +

RRHHRRSKAKRSRYLEPGPVTV [hPER1-280-9V]
level of CTL killing of peptide-pulsed target cells treated with brefeldin A (P815-A2/K^b cells; 5 μg/ml brefeldin A in the assay): reduced | sensitization of P815-A2/K^b target cells for CTL recognition (P815-A2/K^b cells; 10^−6 g/ml peptide, 1 hour at 37° C., 4-hour chromium release): can be sensitized | induction of 280-9V-specific human CTLs [6]: can be induced | peptide-specific CTL responses [7]: can be induced

SIINFEKL [reference compound]
cytotoxicity levels, peptide in IFA (C57BL/6 mice [4]; administered with incomplete Fruend's adjuvant, FIG. 10): comparable | incubation time by which pulsed cells lose their stimulatory capacity ([5]; IFN-γ ELISPOT with SIINFEKL-specific T cells): ≤ 24 h

SVYDFFVWL [TRP2 peptide, unconjugated, reference compound]
CTL responses after peptide-pulsed DC vaccine (C57BL/6 mice [2]): non immunogenic | Immunogenicity in mice (mice; [8]): + +

YGRKKRRQRRRDEVWELSIINFEKL
stimulatory activity of pulsed cells after 30 hours [5]: no reduction in activity | Immunogenicity in mice (mice; mouse, in vivo): + + +
